# Experimental data as given in US20240350444A1, “COMBINATION COMPRISING DECANOIC ACID FOR THE TREATMENT OF EPILEPSY” (priority 2017, published 2024).
# Read-outs that look alike come from different tables or passages of the source.
# Assays:
# [1] = test system: PTZ-induced epileptiform activity in rat entorhinal cortex-hippocampal slices; test: Rat hippocampal PTZ seizure-like activity analysis; type: cell-based; settings: for seizure activity: modelled data; for IC50: Rattus norvegicus, read-out: decanoic acid IC50 for epileptiform activity
# Procedure: FIG. 3. (A) Epileptiform (paroxysmal) activity was induced in rat entorhinal cortex-hippocampal slices by application of PTZ (2 mM) and [K+] (to 6 mM), and recorded over time at fixed perampanel and increasing decanoic acid (DA) concentration. (B) Epileptiform activity was normalised to activity in absence or presence of each concentration (100 nM and 500 nM) and shown at variable DA concentrations. […] Data is derived from at least three biological repeats.
# Seizure-like activity was induced, as previously described (Chang et al. 2016. Brain 139: 431-43), in rat entorhinal cortex-hippocamal slices by application of PTZ (2 mM) to the perfusate and [K+] was increased (to 6 mM). Perampanel (100 or 500 nM) or DMSO was applied to the perfusate, and then decanoic acid (Sigma Ltd) was applied at increasing concentrations at 10 minutes intervals. The change in the frequency of the discharges was measured at minute intervals, averaged every 5 minutes, and normalised to baseline. Data were analyzed using Origin (OriginLab Corporation, MA USA) and SPSS (IBM, UK) with IC50 values calculated from fitting data values with a Hill plot. Statistical analysis was performed using a one-way ANOVA with two-way Dunnett's post hoc test.
# [2] = test system: GYKI resistant subunit GluA3 mutant; test: Direct AMPA receptor current recording in Xenopus oocytes, GYKI resistant GluA3 mutant; type: cell-based
# Procedure: (§1) FIG. 1. AMPA (GluA2/3, GluA1/2, or GluA3) receptors were expressed in Xenopus oocytes, and perfused with L-glutamate (100 μM) and the indicated compound, unless stated otherwise. Currents were recorded using TEVC. (A) Representative current traces of inhibitory dose-response curves for perampanel on GluA1/2 and GluA2/3 receptors. (B) Dose-response curve showing inhibition of GluA1/2 (N=10) and GluA2/3 (N=6) by perampanel, with respective IC50 values shown in bar graph inset. (C) Effect of varying perampanel concentrations on glutamate EC50 against GluA1/2. Points were normalised to maximal response and represent the mean and SEM of 6 (glutamate only) and 5 (with 2.5 μM and 5 μM perampanel). (D) Quantitative representation of mean currents recorded in wildtype and mutant GluA3 normalised to maximal responses in the presence of perampanel (N=5 for wildtype and N=6 for mutant) and decanoic acid, DA (N=4 for both wildtype and mutant).
# (§2) As previously described (Chang et al. 2016. Brain 139: 431-43), AMPA receptor subunits (GluA2/3, GluA1/2, and GluA3) were expressed in Xenopus oocytes and agonist elicited inward currents were used to measure inhibition by decanoic acid (Sigma Ltd) and perampanel (Apexmol Technology Co. Ltd).
# (§3) To confirm this, we expressed a GYKI resistant subunit GluA3 mutant (11) and assessed it for sensitivity to perampanel and decanoic acid (FIG. 1C).
# [3] = biological target: T1, AMPA receptor GluA1/2 (Homo sapiens, UniProt P42261+P42262); test: Direct AMPA receptor current recording (TEVC) in Xenopus oocytes, GluA1/2; type: cell-based
# T1 construct: expressed in transfected cells; host or cells: Xenopus laevis oocytes
# Procedure: as §1
# (§4) FIG. 2. AMPA (GluA2/3, GluA 1/2, or GluA3) receptors were expressed in Xenopus oocytes, and perfused with L-glutamate (100 μM) and the indicated compound, unless stated otherwise. Currents were recorded using TEVC. (A) Representative current traces of inhibitory dose-response curves for decanoic acid (DA) on GluA2/3 receptors at 1 μM or 4 μM perampanel. Dose-response inhibition curves for decanoic acid at 1μM or 4 μM perampanel on (B) GluA2/3 and (C) GluA1/2 receptors. Points were normalised to maximal response to L-glutamate and solvent, 1 μM perampanel or 4 μM perampanel and represent means and SEM of 8 to 13 readings. Inserts show respective ICs50 values in the presence of perampanel. (D) Representative current traces of inhibitory dose-response curves for perampanel on GluA2/3 receptors at 50 μM to 100 μM decanoic acid. (E), (F) Dose-response inhibition curves for perampanel at 50 μM and 100 μM DA on GluA2/3 (E) and GluA1/2 (F) receptors. Points were normalised to maximal response to L-glutamate with solvent, 50 μM and 100 μM DA and represent means and SEM of 8 to 13 readings. Inserts show respective perampanel IC50 values in the presence of DA. Scale bars correspond to 150 nA in GluA1/2 and 30 nA in GluA2/3 (A), 50 nA (E) and 200 nA (H). Scale bars correspond to 60 nA for +1 μM perampanel and 75 nA for +4 μM perampanel (K) and 200 nA (L).
# as §2
# [4] = biological target: T2, AMPA receptor GluA2/3 (Homo sapiens, UniProt P42262+P42263); test: Direct AMPA receptor current recording (TEVC) in Xenopus oocytes, GluA2/3; type: cell-based
# T2 construct: expressed in transfected cells; host or cells: Xenopus laevis oocytes
# Procedure: as §1, §4, §2
# [5] = biological target: T3, wild type AMPA receptor (GluA3) (Homo sapiens, UniProt P42263); test: Direct AMPA receptor current recording in Xenopus oocytes, wild type GluA3; type: cell-based
# T3 construct: expressed in transfected cells; host or cells: Xenopus oocytes
# Procedure: as §1, §2, §3
# [6] = rodent models; cited from earlier work
# [7] = patients on the MCT ketogenic diet; cited from earlier work
# [8] = Decanoic acid levels in patients on the MCT ketogenic diet; type: in vivo; settings: extrapolating the rodent ratio to human brain
# [9] = IC50, inhibition of AMPA receptor currents, perampanel alone, currents elicited by glutamate, Xenopus oocytes (FIG. 1B)
# [10] = read-out: glutamate evoked maximal response reduced to
# T1 sequence (P42261 19-906): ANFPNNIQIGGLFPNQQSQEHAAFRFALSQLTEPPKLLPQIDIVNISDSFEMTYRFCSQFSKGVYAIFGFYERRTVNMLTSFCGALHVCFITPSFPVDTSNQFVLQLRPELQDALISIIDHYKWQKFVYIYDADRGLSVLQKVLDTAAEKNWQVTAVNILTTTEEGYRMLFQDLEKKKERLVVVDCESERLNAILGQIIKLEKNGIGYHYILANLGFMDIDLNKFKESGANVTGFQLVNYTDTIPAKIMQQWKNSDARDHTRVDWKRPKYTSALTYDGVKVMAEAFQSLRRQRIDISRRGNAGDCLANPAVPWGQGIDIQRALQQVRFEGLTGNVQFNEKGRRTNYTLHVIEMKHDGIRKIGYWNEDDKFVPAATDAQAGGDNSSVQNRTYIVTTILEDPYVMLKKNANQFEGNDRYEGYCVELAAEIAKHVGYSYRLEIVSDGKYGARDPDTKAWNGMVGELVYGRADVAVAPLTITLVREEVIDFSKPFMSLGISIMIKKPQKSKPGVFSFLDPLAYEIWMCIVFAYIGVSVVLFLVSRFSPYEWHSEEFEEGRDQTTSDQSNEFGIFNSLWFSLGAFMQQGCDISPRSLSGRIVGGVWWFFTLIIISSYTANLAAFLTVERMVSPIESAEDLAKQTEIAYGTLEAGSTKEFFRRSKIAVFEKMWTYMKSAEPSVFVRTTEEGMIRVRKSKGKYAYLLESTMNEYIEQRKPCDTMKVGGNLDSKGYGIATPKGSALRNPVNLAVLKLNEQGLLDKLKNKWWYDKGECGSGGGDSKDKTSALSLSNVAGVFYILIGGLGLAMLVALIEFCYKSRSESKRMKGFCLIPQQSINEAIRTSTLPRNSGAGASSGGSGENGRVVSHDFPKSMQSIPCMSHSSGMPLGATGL
# T1 sequence (P42262 22-883 limits assumed): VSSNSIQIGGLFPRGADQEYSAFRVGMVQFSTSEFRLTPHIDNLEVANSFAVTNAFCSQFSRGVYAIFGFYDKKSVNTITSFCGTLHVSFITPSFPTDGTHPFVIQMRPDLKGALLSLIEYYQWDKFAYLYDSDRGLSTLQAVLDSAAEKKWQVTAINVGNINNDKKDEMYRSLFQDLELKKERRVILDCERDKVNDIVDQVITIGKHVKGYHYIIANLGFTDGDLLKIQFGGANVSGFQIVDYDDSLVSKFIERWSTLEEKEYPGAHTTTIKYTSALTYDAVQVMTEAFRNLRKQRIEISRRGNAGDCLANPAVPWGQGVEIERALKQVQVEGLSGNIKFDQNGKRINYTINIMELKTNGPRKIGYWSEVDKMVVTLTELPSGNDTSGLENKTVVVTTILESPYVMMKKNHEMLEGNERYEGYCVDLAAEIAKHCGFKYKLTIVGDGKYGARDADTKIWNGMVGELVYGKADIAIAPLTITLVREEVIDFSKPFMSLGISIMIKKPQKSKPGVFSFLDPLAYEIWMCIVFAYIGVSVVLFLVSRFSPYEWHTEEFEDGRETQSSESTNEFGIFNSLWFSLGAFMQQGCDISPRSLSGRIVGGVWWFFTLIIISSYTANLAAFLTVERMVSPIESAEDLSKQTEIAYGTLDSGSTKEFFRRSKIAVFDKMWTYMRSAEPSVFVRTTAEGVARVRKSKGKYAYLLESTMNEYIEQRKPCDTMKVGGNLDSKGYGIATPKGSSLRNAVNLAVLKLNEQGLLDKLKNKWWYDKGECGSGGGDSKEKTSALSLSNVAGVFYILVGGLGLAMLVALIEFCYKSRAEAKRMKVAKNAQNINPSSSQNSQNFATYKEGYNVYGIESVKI
# T2 sequence (P42262 22-883 limits assumed): as above
# T2 sequence (P42263 29-894): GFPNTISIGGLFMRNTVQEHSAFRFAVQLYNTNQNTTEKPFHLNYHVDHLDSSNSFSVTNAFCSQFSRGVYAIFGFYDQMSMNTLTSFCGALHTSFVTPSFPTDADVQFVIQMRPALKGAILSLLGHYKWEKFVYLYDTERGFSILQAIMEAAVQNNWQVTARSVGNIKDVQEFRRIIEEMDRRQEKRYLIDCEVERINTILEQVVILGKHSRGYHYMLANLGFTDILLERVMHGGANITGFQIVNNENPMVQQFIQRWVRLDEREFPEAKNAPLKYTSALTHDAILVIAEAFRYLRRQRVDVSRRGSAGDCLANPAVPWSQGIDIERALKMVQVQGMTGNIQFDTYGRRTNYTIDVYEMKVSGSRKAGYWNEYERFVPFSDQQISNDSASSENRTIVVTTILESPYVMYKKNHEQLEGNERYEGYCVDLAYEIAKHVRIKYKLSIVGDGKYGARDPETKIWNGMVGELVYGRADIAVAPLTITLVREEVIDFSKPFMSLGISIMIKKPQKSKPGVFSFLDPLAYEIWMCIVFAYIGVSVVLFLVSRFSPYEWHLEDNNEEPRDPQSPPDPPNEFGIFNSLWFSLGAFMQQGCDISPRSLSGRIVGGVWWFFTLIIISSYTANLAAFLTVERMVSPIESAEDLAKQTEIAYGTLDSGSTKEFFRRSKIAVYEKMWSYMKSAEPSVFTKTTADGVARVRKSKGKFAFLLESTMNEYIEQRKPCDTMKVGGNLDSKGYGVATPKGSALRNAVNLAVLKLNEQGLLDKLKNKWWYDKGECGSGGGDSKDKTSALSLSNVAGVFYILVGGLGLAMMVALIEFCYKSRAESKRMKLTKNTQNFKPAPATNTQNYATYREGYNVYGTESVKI
# T3 sequence (P42263 29-894, species assumed): as the sequence (P42263 29-894) above
smiles,measurement,setting,value
"N#Cc1ccccc1-c1cc(-c2ccccn2)cn(-c2ccccc2)c1=O [perampanel, 3-(2-Cyanophenyl)-5-(2-pyridyl)-1-phenyl-1,2-dihydropyridin-2-one]",seizure activity,"[1]; perampanel 100 nM, in the absence of decanoic acid",95.6%
same,reduction of glutamate-induced currents,[2]; perampanel 20 μM,54.3%
same,IC50,[3]; [9],1.12 µM
same,reduction in the IC50 value for perampanel,"[3]; in combination with decanoic acid, GluA1/2",~3 fold
same,manner of inhibition of AMPA receptor currents,[3]; increasing glutamate concentrations not reversing inhibition (FIG. 1C),non-competitive
same,IC50,[3]; perampanel IC50 in GluA1/2,2.1 µM
same,IC50,"[3]; perampanel IC50 in GluA1/2, in the absence of DA (FIG. 2F)",6.2 µM
same,IC50,"[3]; perampanel IC50 in GluA1/2, in the presence of DA",2.2 µM
same,Emax at 2.5 µM,[3]; [10],75.2%
same,Emax at 5 µM,[3]; [10],16.9%
same,IC50,[4]; [9],1.51 µM
same,reduction in the IC50 value for perampanel,"[4]; in combination with decanoic acid, GluA2/3",~3 fold
same,IC50,"[4]; perampanel IC50 in GluA2/3, in the absence of DA (FIG. 2E)",5.1 µM
same,IC50,"[4]; perampanel IC50 in GluA2/3, in the presence of DA at 50 mM",1.7 µM
same,IC50,"[4]; perampanel IC50 in GluA2/3, in the presence of DA at 100 Mm",1.6 µM
same,increase in the inhibition of the AMPA receptor by perampanel,"[4]; with 100 μM decanoic acid, subunit combination not specified",3 fold
same,reduction of glutamate-induced currents,[5]; perampanel 20 μM,94.7%
CCCCCCCCCC(=O)O [decanoic acid],ratio of decanoic acid in brain to blood plasma,[6],around 0.7
same,IC50,[1]; at 100 nM perampanel,196 µM
same,IC50,[1]; at 500 nM perampanel,122 µM
same,IC50,[1]; without perampanel,352 µM
same,seizure activity,[1]; decanoic acid 10 μM combined with perampanel 100 nM,76.8%
same,seizure activity (baseline inhibition reduced to),[1]; decanoic acid 10 μM with perampanel 500 nM,69.6%
same,concentration giving block of epileptiform activity,[1]; decanoic acid alone,1000 µM
same,concentration at which epileptiform activity was reduced,"[1]; decanoic acid alone, increasing concentrations",300 µM
same,concentration giving block in seizure activity,[1]; decanoic acid combined with perampanel 100 nM,600 µM
same,reduction of glutamate-induced currents,[2]; decanoic acid 1 mM,72.8%
same,IC50,"[3]; in the absence of perampanel, read-out: decanoic acid IC50 for GluA1/2",920 µM
same,IC50,"[3]; in the presence of 1 μM perampanel, read-out: decanoic acid IC50 for GluA1/2",210 µM
same,IC50,"[3]; in the presence of 4 μM perampanel, read-out: decanoic acid IC50 for GluA1/2",90 µM
same,average concentration of decanoic acid in peripheral blood,[7],157 µM
same,IC50,"[4]; in the absence of perampanel, read-out: decanoic acid IC50 for GluA2/3",520 µM
same,IC50,"[4]; in the presence of 1 μM perampanel, read-out: decanoic acid IC50 for GluA2/3",100 µM
same,IC50,"[4]; in the presence of 4 μM perampanel, read-out: decanoic acid IC50 for GluA2/3",40 µM
same,reduction of glutamate-induced currents,[5]; decanoic acid 1 mM,74.5%
same,average concentration of decanoic acid in the brain,[8],around 110 μM
